PubChem BioAssay (NCI)
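Assay format: 96-well plates, 48-hour exposure. TGI: total growth inhibition.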

Assays:
Experiment in all cases: inhibition of tumour cell growth, NCI panel, 48 h
[1] = system: HOP-62 NSCLC
[2] = system: UO-31 renal
[3] = system: ACHN renal
[4] = system: A549 NSCLC
[5] = system: XF 498 CNS
[6] = system: 786-0 renal
[7] = system: SF-268 CNS
[8] = system: CAKI-1 renal
[9] = system: SK-OV-3 ovarian
[10] = system: SF-295 CNS
[11] = system: KM20L2 colon
[12] = system: K-562 leukemia
[13] = system: SNB-75 CNS
[14] = system: NCI-H460 lung
[15] = system: HL-60(TB) leukemia
[16] = system: DLD-1 colon
[17] = system: SNB-78 CNS
[18] = system: SW-620 colon
[19] = system: OVCAR-5 ovarian
[20] = system: M19-MEL melanoma
[21] = system: MALME-3M melanoma
[22] = system: HT29 colon
[23] = system: MOLT-4 leukemia
[24] = system: HOP-18 NSCLC
[25] = system: DMS 273 small cell lung
[26] = system: COLO 205 colon
[27] = system: NCI-H23 lung
[28] = system: NCI-H226 lung
[29] = system: RPMI-8226 leukemia
[30] = system: HCT-116 colon
[31] = system: DMS 114 small cell lung
[32] = system: EKVX NSCLC
[33] = system: SK-MEL-5 melanoma
[34] = system: LXFL 529 NSCLC
[35] = system: SK-MEL-28 melanoma
[36] = system: SF-539 CNS
[37] = system: HCT-15 colon
[38] = system: TK-10 renal
[39] = system: HCC-2998 colon
[40] = system: OVCAR-3 ovarian
[41] = system: SN12C renal
[42] = system: U251 CNS
[43] = system: SK-MEL-2 melanoma
[44] = system: CCRF-CEM leukemia
[45] = system: LOX IMVI melanoma
[46] = system: NCI-H522 lung
[47] = system: KM12 colon
[48] = system: HOP-92 NSCLC
[49] = system: SNB-19 CNS
[50] = system: SR leukemia
[51] = system: IGROV1 ovarian
[52] = system: UACC-257 melanoma
[53] = system: UACC-62 melanoma
[54] = system: RXF 393 renal
[55] = system: OVCAR-8 ovarian
[56] = system: M14 melanoma
[57] = system: RXF-631 renal
[58] = system: OVCAR-4 ovarian
[59] = system: A498 renal

CN(CCO)c1nc(=O)c2c(n1C1OC(CO)C(O)C(O)C1O)CCCC2 (stereo not given)
TGI [1]: > 100 µM
TGI [2]: > 100 µM
TGI [3]: > 100 µM
TGI [4]: > 100 µM
TGI [5]: > 100 µM
TGI [6]: > 100 µM
TGI [7]: > 100 µM
TGI [8]: > 100 µM
TGI [9]: > 100 µM
TGI [10]: > 100 µM
TGI [11]: > 100 µM
TGI [12]: > 100 µM
TGI [13]: > 100 µM
TGI [14]: > 100 µM
TGI [15]: > 100 µM
TGI [16]: > 100 µM
TGI [17]: > 100 µM
TGI [18]: > 100 µM
TGI [19]: > 100 µM
TGI [20]: > 100 µM
TGI [21]: > 100 µM
TGI [22]: > 100 µM
TGI [23]: > 100 µM
TGI [24]: > 100 µM
TGI [25]: > 100 µM
TGI [26]: > 100 µM
TGI [27]: > 100 µM
TGI [28]: > 100 µM
TGI [29]: > 100 µM
TGI [30]: > 100 µM
TGI [31]: > 100 µM
TGI [32]: > 100 µM
TGI [33]: > 100 µM
TGI [34]: > 100 µM
TGI [35]: > 100 µM
TGI [36]: > 100 µM
TGI [37]: > 100 µM
TGI [38]: > 100 µM
TGI [39]: > 100 µM
TGI [40]: > 100 µM
TGI [41]: > 100 µM
TGI [42]: > 100 µM
TGI [43]: > 100 µM
TGI [44]: > 100 µM
TGI [45]: > 100 µM
TGI [46]: > 100 µM
TGI [47]: > 100 µM
TGI [48]: > 100 µM
TGI [49]: > 100 µM
TGI [50]: > 100 µM
TGI [51]: > 100 µM
TGI [52]: > 100 µM
TGI [53]: > 100 µM
TGI [54]: > 100 µM
TGI [55]: > 100 µM
TGI [56]: > 100 µM

CCCCCCCCCCCCCCCCCC(=O)NCC(COP(=O)([O-])OCC[N+](C)(C)C)OCC (stereo not given)
TGI [2]: 33.8 µM
TGI [4]: 33.4 µM
TGI [9]: 33.7 µM
TGI [11]: 0.71 µM
TGI [21]: 36.1 µM
TGI [57]: 37.5 µM
TGI [25]: 0.284 µM
TGI [27]: 34.6 µM
TGI [31]: 32.9 µM
TGI [32]: 38.7 µM
TGI [33]: 32.2 µM
TGI [35]: 32.5 µM
TGI [36]: 31.6 µM
TGI [45]: 44.6 µM
TGI [49]: 0.326 µM
TGI [52]: 33 µM

CCCCCCCC(=O)OC(COC(=O)Cc1ccccc1)COC(=O)C(C)(C)C (stereo not given)
TGI [1]: > 100 µM
TGI [2]: > 100 µM
TGI [3]: > 100 µM
TGI [4]: > 100 µM
TGI [6]: > 100 µM
TGI [7]: > 100 µM
TGI [8]: > 100 µM
TGI [9]: > 100 µM
TGI [58]: > 100 µM
TGI [10]: > 100 µM
TGI [11]: > 100 µM
TGI [12]: > 100 µM
TGI [14]: > 100 µM
TGI [15]: > 100 µM
TGI [16]: > 100 µM
TGI [18]: > 100 µM
TGI [19]: > 100 µM
TGI [20]: > 100 µM
TGI [21]: > 100 µM
TGI [57]: > 100 µM
TGI [23]: > 100 µM
TGI [24]: > 100 µM
TGI [25]: > 100 µM
TGI [26]: > 100 µM
TGI [27]: > 100 µM
TGI [28]: > 100 µM
TGI [29]: > 100 µM
TGI [30]: > 100 µM
TGI [31]: > 100 µM
TGI [33]: > 100 µM
TGI [34]: > 100 µM
TGI [35]: > 100 µM
TGI [37]: > 100 µM
TGI [38]: > 100 µM
TGI [39]: > 100 µM
TGI [40]: > 100 µM
TGI [41]: > 100 µM
TGI [42]: > 100 µM
TGI [44]: > 100 µM
TGI [59]: > 100 µM
TGI [45]: > 100 µM
TGI [48]: > 100 µM
TGI [49]: > 100 µM
TGI [50]: > 100 µM
TGI [51]: > 100 µM
TGI [53]: > 100 µM
TGI [55]: > 100 µM
TGI [56]: > 100 µM
